Consider five compounds from US7566699B2, “Fused heterocyclic derivative, medicinal composition containing the same, and medicinal use thereof” (Kissei Pharmaceutical Co., Ltd., priority 2003, dated 2009).

One experiment concerns the target T1, human SGLT2 (Homo sapiens, UniProt P31639).
T1 construct: expressed in transfected cells
T1 sequence (P31639 1-672): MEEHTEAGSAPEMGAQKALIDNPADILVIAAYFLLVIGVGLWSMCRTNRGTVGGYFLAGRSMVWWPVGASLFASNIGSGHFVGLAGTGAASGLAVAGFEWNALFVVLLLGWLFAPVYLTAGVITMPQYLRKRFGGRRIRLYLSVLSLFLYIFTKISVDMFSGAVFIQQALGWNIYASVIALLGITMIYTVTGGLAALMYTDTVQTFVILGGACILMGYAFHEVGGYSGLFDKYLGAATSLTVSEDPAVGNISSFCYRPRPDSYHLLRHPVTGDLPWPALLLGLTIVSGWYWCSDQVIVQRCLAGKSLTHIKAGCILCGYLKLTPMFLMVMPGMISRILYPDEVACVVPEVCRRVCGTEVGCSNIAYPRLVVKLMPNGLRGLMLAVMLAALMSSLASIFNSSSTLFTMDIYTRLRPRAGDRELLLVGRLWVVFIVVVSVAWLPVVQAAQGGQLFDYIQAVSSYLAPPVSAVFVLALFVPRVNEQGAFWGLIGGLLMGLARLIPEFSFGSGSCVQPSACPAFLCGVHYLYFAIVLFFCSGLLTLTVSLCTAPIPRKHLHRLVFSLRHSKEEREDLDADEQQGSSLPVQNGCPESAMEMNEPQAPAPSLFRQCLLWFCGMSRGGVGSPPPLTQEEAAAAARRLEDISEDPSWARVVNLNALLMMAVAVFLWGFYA
Kind of experiment: Assay for inhibitory effects on human SGLT2 activity (uptake of methyl-α-D-glucopyranoside). Type of experiment: cell-based. To be noted: inhibition of uptake of 14C-labeled methyl-α-D-glucopyranoside (1 mM) in CS2-5E cells (CHO-K1) stably expressing human SGLT2, 37° C., 1 hour. Here is the method:
Assay for Inhibitory Effects on Human SGLT2 Activity
1) Cloning and Construction of the Vector Expressing Human SGLT2
The cDNA library was prepared for PCR amplification by reverse transcription from total RNA deprived from human kidney (Ori gene) using oligo-dT as a primer. Using this cDNA library as a template, the DNA fragment coding 2 to 2039 bp of human SGLT2 (ACCESSION: M95549, M95299), which was reported by R. G. Wells et al., was amplified by PCR method and inserted into the multi-cloning site of pcDNA3.1(−) (Invitrogen). The DNA sequence inserted was perfectly matched to the previously reported sequence.
2) Establishment of Cell Line Stably Expressing Human SGLT2
The expression vector of human SGLT2 was digested by Sca I into a linear DNA. The linear DNA was transfected into CHO-K1 cells by means of lipofection (Effectene Transfection Reagent: QIAGEN). Neomycin resistant cell lines were selected by culture in the medium containing G418 (1 mg/mL, LIFE TECHNOLOGIES), and then the activity against the uptake of methyl-α-D-glucopyranoside was measured by the method described below. […] CS2-5E cells were cultured in the presence of G418 at 200 μg/mL.
3) Measurement of the Inhibitory Activity Against the Uptake of Methyl-α-D-glucopyranoside (α-MG)
CS2-5E cells were seeded into a 96-well culture plate at a density of 3×10^4 cells/well and cultured for 2 days, and were used in the uptake assay. A mixture of non-labeled (Sigma) and ^14C-labeled α-MG (Amersham Pharmacia Biotech) was added to the uptake buffer (pH 7.4; containing 140 mM sodium chloride, 2 mM potassium chloride, 1 mM calcium chloride, 1 mM magnesium chloride, 10 mM 2-[4-(2-hydroxyethyl)-1-piperazinyl]ethane sulfonic acid and 5 mM tris(hydroxymethyl)aminomethane) at the final concentration of 1 mM. […] Radioactivity was measured by means of micro-scintillation counter TopCount (Packard). One hundred % was set to the difference between the uptake in the control group and the basal uptake, and the uptake of methyl α-D-glucopyranoside at each drug concentration were calculated. […]

The next experiment concerns the target T2, human SGLT1 (Homo sapiens, UniProt P13866).
T2 construct: expressed in transfected cells
T2 sequence (P13866 1-664): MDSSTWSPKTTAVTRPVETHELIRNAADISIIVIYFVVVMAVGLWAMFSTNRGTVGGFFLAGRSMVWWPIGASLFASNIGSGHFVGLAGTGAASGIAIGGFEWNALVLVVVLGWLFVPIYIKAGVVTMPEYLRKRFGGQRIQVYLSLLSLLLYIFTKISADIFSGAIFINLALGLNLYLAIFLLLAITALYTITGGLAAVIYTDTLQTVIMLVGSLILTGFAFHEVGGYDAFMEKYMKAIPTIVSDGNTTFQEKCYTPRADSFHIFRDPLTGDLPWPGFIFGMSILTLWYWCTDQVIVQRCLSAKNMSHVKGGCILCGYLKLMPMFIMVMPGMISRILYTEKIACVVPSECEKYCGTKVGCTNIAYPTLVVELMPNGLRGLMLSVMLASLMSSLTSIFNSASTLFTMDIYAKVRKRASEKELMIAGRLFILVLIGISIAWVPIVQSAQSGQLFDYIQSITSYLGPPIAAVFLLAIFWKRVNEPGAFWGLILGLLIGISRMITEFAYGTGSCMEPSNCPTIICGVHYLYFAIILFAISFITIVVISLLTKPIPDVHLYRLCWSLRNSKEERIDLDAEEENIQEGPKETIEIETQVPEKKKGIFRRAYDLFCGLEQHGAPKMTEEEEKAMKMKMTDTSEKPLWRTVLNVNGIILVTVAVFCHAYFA
In words: Assay for inhibitory effects on human SGLT1 activity (uptake of methyl-α-D-glucopyranoside). Format: cell-based. To be noted: inhibition of uptake of 14C-labeled methyl-α-D-glucopyranoside (1 mM) in CS1-5-11D cells stably expressing human SGLT1, 37° C., 1 hour. Here is the method: Assay for Inhibitory Effects on Human SGLT1 Activity
1) Cloning and Construction of the Vector Expressing Human SGLT1
The cDNA library was prepared for PCR amplification by reverse transcription from total RNA deprived from human small intestine (Ori gene) using oligo-dT as a primer. Using this cDNA library as a template, the DNA fragment coding 1 to 2005 bp of human SGLT1 (ACCESSION: M24847), which was reported by Hediger et al., was amplified by PCR method and inserted into the multi-cloning site of pcDNA3.1(−) (Invitrogen). The DNA sequence inserted was perfectly matched to the previously reported sequence.
2) Establishment of Cell Line Stably Expressing Human SGLT1
The expression vector of human SGLT1 was digested by Sca I into a linear DNA. The linear DNA was transfected into […] cells by means of lipofection (Effectene Transfection Reagent: QIAGEN). Neomycin resistant cell lines were selected by culture in the medium containing G418 (1 mg/mL, LIFE TECHNOLOGIES), and then the activity against the uptake of methyl-αD-glucopyranoside was measured by the method described below. […] CS1-5-11D cells were cultured in the presence of G418 at 200 μg/mL. […]
CS1-5-11D cells were seeded into a 96-well culture plate at a density of 3×10^4 cells/well and cultured for 2 days, and were used in the uptake assay. […] Radioactivity was measured by means of micro-scintillation counter TopCount (Packard). […]

Molecules are shown by their SMILES.

Broadly, the IC50 is the concentration that inhibits the measured activity by half. `Cc1ccccc1CCc1coc2cccc(O[C@@H]3O[C@H](CO)[C@@H](O)[C@H](O)[C@H]3O)c12` [Example 3, 4-(β-D-Glucopyranosyloxy)-3-[2-(2-methylphenyl)ethyl]-benzofuran]: on human SGLT2, the concentration for half-maximal inhibition (IC50) was determined as 41 nM.

`OC[C@H]1O[C@@H](Oc2cccc3occ(CCc4ccncc4)c23)[C@H](O)[C@@H](O)[C@@H]1O` [Example 43, 4-(β-D-Glucopyranosyloxy)-3-[2-(4-pyridyl)ethyl]benzofuran] yielded a half-inhibitory concentration (IC50) against human SGLT2 of 12 nM.

For the compound `OC[C@H]1O[C@@H](Oc2cccc3occ(CCc4ccccc4)c23)[C@H](O)[C@@H](O)[C@@H]1O` [Example 2, 4-(β-D-Glucopyranosyloxy)-3-(2-phenylethyl)benzofuran], the concentration for half-maximal inhibition (IC50) on human SGLT2 was 6 nM.

The compound `OC[C@H]1O[C@@H](Oc2cccc3occ(CCc4ccc(OCCCNC(CO)(CO)CO)cc4)c23)[C@H](O)[C@@H](O)[C@@H]1O` [Example 24, 4-(β-D-Glucopyranosyloxy)-3-[2-(4-{3-[2-hydroxy-1,1-bis(hydroxymethyl)ethylamino]propoxy}phenyl)ethyl]benzofuran] gave an IC50 against human SGLT1 of 25 nM.

On human SGLT1, `OC[C@H]1O[C@@H](Oc2cc(O)cc3occ(CCc4ccccc4)c23)[C@H](O)[C@@H](O)[C@@H]1O` [Example 7, 4-(β-D-Glucopyranosyloxy)-6-hydroxy-3-(2-phenylethyl)benzofuran] returned an IC50 of 15 nM.
